For one data set, the target named is Proteinase K (Parengyodontium album, UniProt P06873). The procedure:
(§1) Melimine was used as positive control as it is a cationic antimicrobial peptide that can be hydrolysed by proteases. The Expasy peptide cutter module (https://web.expasy.org/peptide_cutter/) was accessed to predict which proteases might digest melimine. The susceptibility of the antimicrobial compounds to digestion by two proteases expected to digest melimine, Proteinase K (120 unit mL^−1 in 20 mM Tris HCl, pH 7.4; New England Bio Labs, Australia) and Trypsin (10,350 BAFE units/mg in 50 mM borate buffer, pH 8.5; Thermo Scientific products, Australia), was tested. The peptoids and melimine were incubated with each protease at the ratio (w/w) of 1:100 in PBS (pH 7.4) for 24 h at 37 °C. After incubation, the peptoid/melimine + protease solutions were tested for their activity against P. aeruginosa 216 which was grown overnight in TSB at 37 °C. Bacterial cells were washed three times in PBS and then resuspended in MHB OD660nm of 0.1 (equal to 1x10^8 CFU mL^−1. The bacterial suspension was then diluted in MHB to a final working concentration of 5x10^6 cells mL^−1. The diluted bacterial suspension was subsequently added to the wells containing the peptoids/melimine + protease solution and incubated for 24 h at 37 °C. Peptoids/melimine solutions alone (no proteases) were used as a positive control, while protease solutions without the peptoids/melimine were used as a negative control. Post incubation, to inhibit the activity of the proteases, the bacterial suspensions were heated at 55 °C for 10 min in a water bath. After the heating step, the absorbance of the suspensions was measured at OD660nm.

For a further data set, the target named is T1, Trypsin (Bos taurus, UniProt P00760).
T1 sequence (P00760 24-246): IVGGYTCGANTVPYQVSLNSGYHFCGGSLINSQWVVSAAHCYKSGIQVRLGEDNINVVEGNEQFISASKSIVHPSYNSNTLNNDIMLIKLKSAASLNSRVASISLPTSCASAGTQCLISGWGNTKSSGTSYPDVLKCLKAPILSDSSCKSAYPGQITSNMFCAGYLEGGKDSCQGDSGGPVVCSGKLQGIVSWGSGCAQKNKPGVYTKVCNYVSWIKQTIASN
The procedure:
as §1

In another data set the test system is Bacillus subtilis. The note with it: cited from earlier work. The procedure: (§2) Peptoids act similarly to AMPs as their cationic regions interact electrostatically with the anionic membranes of bacteria and may also facilitate the targeting of intracellular DNA and ribosomal agglutination. […] For example, peptoids can have minimum inhibitory concentrations as low as 1.8 μg mL^−1 against Bacillus subtilis and 12.4 μg mL^−1 against Escherichia coli, whereas these bacteria had MICs of 4.5 μg mL^−1 and 35.6 μg mL^−1, respectively, with the AMP melittin [31] Di-guanidine peptoids, produced via acid amine-coupling between nap ...

Another data set relates to Escherichia coli. The note with it: cited from earlier work. Here is the method: as §2
The mark [1] stands for this setting: incubated with protease at ratio (w/w) 1:100 in PBS pH 7.4, 24 h 37 °C, then P aeruginosa 216 in MHB 24 h 37 °C, OD660nm.
[2] abbreviates: result in words, 24 h 37 °C, P. aeruginosa 216.

No end group written: not given here.

Chain of Proteinase K (P06873 106-384): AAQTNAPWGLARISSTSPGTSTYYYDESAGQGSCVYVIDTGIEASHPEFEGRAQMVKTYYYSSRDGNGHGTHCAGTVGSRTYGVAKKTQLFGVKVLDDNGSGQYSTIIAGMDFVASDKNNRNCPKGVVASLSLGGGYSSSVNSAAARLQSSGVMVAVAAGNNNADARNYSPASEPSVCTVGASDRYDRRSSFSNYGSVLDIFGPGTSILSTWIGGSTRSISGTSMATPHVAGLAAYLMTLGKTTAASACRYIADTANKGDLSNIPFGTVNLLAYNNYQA

For “TLISWIKNKRKQRPRVSRRRRRRGGRRRR [Melimine, reference compound]”, on Proteinase K (setting [1]), the “MIC after Proteinase K” value was >250 (66) μg mL^−1. For the same substance, the “antimicrobial activity after digestion with proteinase K” value on Proteinase K (setting [2]) is on record as “lost all of its antimicrobial activity”. For the same substance, the “MIC after Trypsin” value on Trypsin (setting [1]) is recorded as >250 (66) μg mL^−1. For the same substance, the “antimicrobial activity after digestion with trypsin” value at Trypsin (setting [2]) is listed as “lost all of its antimicrobial activity”.

A word on the MIC: it is the lowest concentration that inhibits growth of the organism. With melittin: the AMP melittin, the MIC in the data set on Bacillus subtilis is 4.5 µg/mL; with Escherichia coli, 35.6 µg/mL.

Source of the values: article PMC11024869, “The activity of antimicrobial peptoids against multidrug-resistant ocular pathogens” (Contact lens & anterior eye : the journal of the British …, 2024).
